Columns and labels:
[1] = Long-term toxicity in rats: organ weights at necropsy; format: in vivo; details: fresh weight, daily oral 250 mg/kg Bromhexine, 350 mg/kg IFT 1026
Procedure: Effect of daily oral administration of 250 mg/kg Bromhexine and 350 mg/kg
organ weights of rats, expressed as grams of fresh weight.

[2] = Long-term toxicity in rats: hematological parameters; format: in vivo, rat; details: daily oral Bromhexine 250 mg/kg, IFT 1026 350 mg/kg
Procedure: The hematological and biochemical values relating to the groups under treament with the above reported doses are shown in Tables Nos. 4 and 5. These values are virtually the same for both treated and control animals.
Effect of daily oral administration of Bromhexine 250 mg/kg
and IFT 1026 350 mg/kg on the hematological parameters in […]

[3] = system: Cough elicited by 15% citric acid spray; assay: Antitussive activity in Guinea-pigs, citric acid spray cough; format: in vivo; details: Cavia porcellus, ip, 0.5 h, intraperitoneal, 30 min. after application, confidence limits P = 0.05
Procedure: (§1) (6) Antitussive effect in Guinea-pigs and mice
(§2) Cough is elicited by 15% citric acid spray in both species, according to the method by Harsany et al. (Boll. Chim. Farm. 112, 691, 1973). The effect was tested 1 hour after oral administration and 30 min. after intraperitoneal application of the antitussive agents on mice and Guinea-pigs respectively.
(§3) ED50 values of the drugs are computed by the method of Litchfield and Wilcoxon (Litchfield, J. T. Jr., and Wilcoxon F., J. Pharmacol. exp. Ther. 96,99--1949).

[4] = Bromsulphtalein (BSP) clearance in rats treated with the lower dose; format: in vivo; details: 30 min after 50 mg/kg BSP i.v., lower dose of drug
Procedure: The possibility to use BSP for the diagnosis of lesions in liver parenchyma is well known. Bromsulphtalein (BSP) clearance was made according to Carpi and Parenti (Carpi, C. and M. A. Parenti, Il Farmaco, Ed. Pr. vol. 17, page 45, 1962). Thirty minutes after the i.v. administration of 50 mg/kg BSP to control rats, the mean plasma level of the dyestuff is 80±12 mcg/ml.
% of rate showing BSP plasma levels greater than 80 mcg/ml
(control values) and 160 mcg/ml (two-fold control values)

[5] = Long-term toxicity in rats: mortality, pathology and general state; details: rat, in vivo
Procedure: Long-term toxicity (16 weeks) of IFT 1026 is tested in comparison to the parent compound (Bromhexine).

[6] = Eight-day toxicity studies in mice, lethality (i.p.); format: in vivo; details: for Total number of deaths: 8 days
From the text: Eight-day toxicity studies of IFT 1026 and Bromhexine in mice.

[7] = system: Cough elicited by 15% citric acid spray; assay: Antitussive activity in mice, citric acid spray cough; format: in vivo; details: Mus musculus, oral, 1 hour after administration, confidence limits P = 0.05
Procedure: as §1, §2, §3

[8] = system: Pain induced by a physical stimulation; assay: Hot-plate Test (Eddy and Leimbach): pain induced by a physical stimulation; format: in vivo, mice; details: mouse, 300 mg/kg oral, plate at 57° C.
Procedure: (§4) Two test methods are used for establishing the action of Bromhexine and IFT 1026 on noci-ceptive stimuli in mice.
(§5) (b) Pain induced by a physical stimulation according to the hot-plate test technique by Eddy and Leimbach (Eddy, N. B. and Leimbach, O., J. Pharmacol. exp.Ther. 107, 383--1953). The temperature of the plate was kept at 57° C. Groups of 12 mice are treated as described under (a) above. The reaction times are measured 15 min. before treatment (Ro) and 4 times after the administration (every 15 min). Only the maximal response is taken into account (Rmax).

[9] = system: noci-ceptive stimuli; assay: Study of analgesic action on mice (both tests); format: in vivo; details: 300 mg/kg oral
Procedure: as §4
(§6) (a) Pain induced by a chemical stimulus according to the method of Siegmund (Siegmund E., Cadmier, R., and Lu, G. Proc. Soc. exp. Biol. N.Y. 95, 729--1957). The mice distributed at random into groups of 10 animals, are deprived of solid food for the 18-hour period prior to the test. […] Thirty minutes after treatment the mice are injected i.p. with 0.1 ml/10 g of a 1.5% acetic acid solution. The writhing is recorded for a 20 min. period following this i.p. injection.
as §5

[10] = Long-term toxicity in rats: biochemical parameters; format: in vivo, rat; details: daily oral 250 mg/kg Bromhexine, 350 mg/kg IFT 1026
[11] = Long-term toxicity in rats (16 weeks): mean body weight; format: in vivo
From the text: Effect of daily oral administration of various doses of
IFT 1026 and Bromhexine on mean body weight of rats.

[12] = system: Pain induced by a chemical stimulus; assay: Siegmund Test: pain induced by a chemical stimulus (acetic acid writhing); format: in vivo, mice; details: mouse, 300 mg/kg oral
Procedure: as §4, §6

In the case of `CN(Cc1cc(Br)cc(Br)c1N)C1CCCCC1` [Bromhexine, N-cyclohexyl-N-methyl-2-(2-amino-3,5-dibromo)benzylammonium chloride], the “organ weight, Adrenal glands” value ([1]; females) is reported as 4.7 ± 0.1 10^-2 grams, the “organ weight, Brain” value ([1]; females) is reported as 19.7 ± 0.5 10^-1 grams and the “organ weight, Heart” value ([1]; females) is reported as 8.3 ± 0.2 10^-1 grams. The “organ weight, Kidneys” value ([1]; females) was 18.8 ± 0.9 10^-1 grams, the “organ weight, Liver” value ([1]; females) was 10.5 ± 0.2 grams and the “organ weight, Lungs” value ([1]; females) was 14.4 ± 0.9 10^-1 grams. For the same compound, the “organ weight, Spleen” value ([1]; females) was 7.9 ± 0.2 10^-1 grams, the “organ weight, Adrenal glands” value ([1]; males) was 3.8 ± 0.2 10^-2 grams and the “organ weight, Brain” value ([1]; males) was 14 ± 1 10^-1 grams. For the same compound, the “organ weight, Heart” value ([1]; males) was 8.8 ± 1.4 10^-1 grams, the “organ weight, Kidneys” value ([1]; males) was 18.4 ± 0.5 10^-1 grams and the “organ weight, Liver” value ([1]; males) was 10.6 ± 0.2 grams. The “organ weight, Lungs” value ([1]; males) was 11.6 ± 1.7 10^-1 grams, the “organ weight, Spleen” value ([1]; males) was 6 ± 0.6 10^-1 grams and the “RBC, mean ± SE” value ([2]; females) was 752 ± 37 10^6 /ml. The “WBC, mean ± SE” value ([2]; females) was 132 ± 5 10^2 /ml, the “RBC, mean ± SE” value ([2]; males) was 774 ± 63 10^6 /ml and the “WBC, mean ± SE” value ([2]; males) was 168 ± 20 10^2 /ml. The ED50 [3] was 143 mg/kg, the “% showing BSP plasma levels >160 mcg/ml” value ([4]; X^2 = 0.43, N.S.) was 12% and the “rats showing BSP plasma levels >160 mcg/ml, number/tested” value ([4]; X^2 = 0.43, N.S.) was 2/17. The “% showing BSP plasma levels >80 mcg/ml” value ([4]; X^2 = 0.7, N.S.) was 41%, the “rats showing BSP plasma levels >80 mcg/ml, number/tested” value ([4]; X^2 = 0.7, N.S.) was 7/17 and the “animals that died during the study” value [5] was “Five”. The “rats displaying liver steatosis” value [5] was “Four”, the “Number of deaths at day 3” value ([6]; daily dose 300 mg/k) was 1 and the “Number of deaths at day 6” value ([6]; daily dose 300 mg/k) was 1. For the same compound, the “Total number of deaths” value ([6]; daily dose 300 mg/k) was 2/10, the “Number of deaths at day 3” value ([6]; daily dose 600 mg/k) was 1 and the “Number of deaths at day 5” value ([6]; daily dose 600 mg/k) was 1. For the same compound, the “Number of deaths at day 6” value ([6]; daily dose 600 mg/k) was 1, the “Number of deaths at day 7” value ([6]; daily dose 600 mg/k) was 1 and the “Number of deaths at day 8” value ([6]; daily dose 600 mg/k) was 1. For the same compound, the “Total number of deaths” value ([6]; daily dose 600 mg/k) was 5/10, the ED50 [7] was 194 mg/kg and the “Hot-plate Test (R max/Ro), mean ± SE” value [8] was 1.5 ± 0.18. The “Responses to algogenic stimuli” value [9] was “not suppressed”, the “A/G ratio (Albumin/Globulin), mean ± SE” value ([10]; females) was 2.6 ± 0.1 and the “BUN, mean ± SE” value ([10]; females) was 44.9 ± 4 mg %. For the same compound, the “GLUCOSE, mean ± SE” value ([10]; females) was 77.1 ± 9 mg %, the “SGOT, mean ± SE” value ([10]; females) was 24.1 ± 0.5 Units/ml and the “SGPT, mean ± SE” value ([10]; females) was 12.6 ± 0.3 Units/ml. The “TOTAL PROTEIN, mean ± SE” value ([10]; females) was 25.8 ± 1.1 mg/mL, the “A/G ratio (Albumin/Globulin), mean ± SE” value ([10]; males) was 2.4 ± 0.2 and the “BUN, mean ± SE” value ([10]; males) was 34.5 ± 3 mg %. For the same compound, the “GLUCOSE, mean ± SE” value ([10]; males) was 88.5 ± 6 mg %, the “SGOT, mean ± SE” value ([10]; males) was 24.8 ± 0.5 Units/ml and the “SGPT, mean ± SE” value ([10]; males) was 12.7 ± 0.15 Units/ml. For the same compound, the “TOTAL PROTEIN, mean ± SE” value ([10]; males) was 27.1 ± 2.5 mg/mL, the “body weight, mean ± SE” value ([11]; females, 50 mg/kg daily oral, 0 days) was 110 ± 5 g and the “body weight, mean ± SE” value ([11]; females, 50 mg/kg daily oral, 21 days) was 174 ± 2 g. For the same compound, the “body weight, mean ± SE” value ([11]; females, 50 mg/kg daily oral, 45 days) was 217 ± 4 g, the “body weight, mean ± SE” value ([11]; females, 50 mg/kg daily oral, 60 days) was 229 ± 4 g and the “body weight, mean ± SE” value ([11]; females, 250 mg/kg daily oral, 0 days) was 109 ± 6 g. For the same compound, the “body weight, mean ± SE” value ([11]; females, 250 mg/kg daily oral, 21 days) was 158 ± 5 g, the “body weight, mean ± SE” value ([11]; females, 250 mg/kg daily oral, 45 days) was 206 ± 4 g and the “body weight, mean ± SE” value ([11]; females, 250 mg/kg daily oral, 60 days) was 230 ± 3 g. For the same compound, the “body weight, mean ± SE” value ([11]; females, 1000 mg/kg daily oral, 0 days) was 117 ± 6 g, the “body weight, mean ± SE” value ([11]; females, 1000 mg/kg daily oral, 21 days) was 147 ± 13 g and the “body weight, mean ± SE” value ([11]; females, 1000 mg/kg daily oral, 45 days) was 157 ± 7 g. The “body weight, mean ± SE” value ([11]; females, 1000 mg/kg daily oral, 60 days) was 188 ± 12 g, the “body weight, mean ± SE” value ([11]; males, 50 mg/kg daily oral, 0 days) was 115 ± 9 g and the “body weight, mean ± SE” value ([11]; males, 50 mg/kg daily oral, 21 days) was 225 ± 6 g. For the same compound, the “body weight, mean ± SE” value ([11]; males, 50 mg/kg daily oral, 45 days) was 295 ± 7 g, the “body weight, mean ± SE” value ([11]; males, 50 mg/kg daily oral, 60 days) was 365 ± 7 g and the “body weight, mean ± SE” value ([11]; males, 250 mg/kg daily oral, 0 days) was 118 ± 12 g. The “body weight, mean ± SE” value ([11]; males, 250 mg/kg daily oral, 21 days) was 218 ± 7 g, the “body weight, mean ± SE” value ([11]; males, 250 mg/kg daily oral, 45 days) was 285 ± 8 g and the “body weight, mean ± SE” value ([11]; males, 250 mg/kg daily oral, 60 days) was 355 ± 9 g. The “body weight, mean ± SE” value ([11]; males, 1000 mg/kg daily oral, 0 days) was 110 ± 7 g, the “body weight, mean ± SE” value ([11]; males, 1000 mg/kg daily oral, 21 days) was 180 ± 9 g and the “body weight, mean ± SE” value ([11]; males, 1000 mg/kg daily oral, 45 days) was 250 ± 8 g. The “body weight, mean ± SE” value ([11]; males, 1000 mg/kg daily oral, 60 days) was 290 ± 12 g, the “variations in the body weights versus control group” value ([11]; rats, exception: Bromhexine 1000 mg/kg/day) was “lower values than their control group” and the “Siegmund Test, number of writhings for a 20 min. period, mean ± SE” value [12] was 32 ± 3.

Reference: US4191780A, “Bromhexine derivatives and process for making same” (priority 1978, dated 1980)
